The source of these data is ChEMBL document CHEMBL5465560, “Selectivity Literature for EUbOPEN Chemogenomic Library” (2024).

For experiment [1], the target named is Homeodomain-interacting protein kinase 1 (Homo sapiens, UniProt Q86Z02). In words: Selectivity interaction (Upstate Kinase Profiler service (Millipore)) EUB0000056c HIPK1. The note with it: at 1 µM.
Experiment [2] concerns the target Serine/threonine-protein kinase 25 (Homo sapiens) (UniProt O00506). In words: Selectivity interaction (ProQinase) EUB0000171b STK25.
Experiment [3] concerns the target T1, Casein kinase I isoform alpha-like (Homo sapiens) (UniProt Q8N752).
T1 sequence (whole entry): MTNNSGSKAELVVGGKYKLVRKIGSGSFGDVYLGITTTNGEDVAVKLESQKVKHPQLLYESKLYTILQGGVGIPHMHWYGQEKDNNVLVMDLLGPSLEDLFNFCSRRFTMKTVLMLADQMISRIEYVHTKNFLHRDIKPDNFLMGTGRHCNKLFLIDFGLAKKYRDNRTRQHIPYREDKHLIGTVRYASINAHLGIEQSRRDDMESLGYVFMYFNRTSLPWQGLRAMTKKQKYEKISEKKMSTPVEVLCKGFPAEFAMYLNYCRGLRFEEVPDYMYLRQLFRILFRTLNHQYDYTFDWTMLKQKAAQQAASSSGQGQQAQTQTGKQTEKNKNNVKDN
In words: Selectivity interaction (Ambit KINOMEscan and KiNATiv profiling in Jurkat cells) EUB0000090b CSNK1A1L. Format: cell-based. The note with it: at 1 µM.

Experiment [4] deals with Serine/threonine-protein kinase PLK1 (Homo sapiens, UniProt P53350). Put plainly: Selectivity interaction (KinomeScan (DiscoverX)) EUB0001079a PLK1. The settings on record: at 1 µM.
Sequence of Serine/threonine-protein kinase PLK1 (P53350 whole entry): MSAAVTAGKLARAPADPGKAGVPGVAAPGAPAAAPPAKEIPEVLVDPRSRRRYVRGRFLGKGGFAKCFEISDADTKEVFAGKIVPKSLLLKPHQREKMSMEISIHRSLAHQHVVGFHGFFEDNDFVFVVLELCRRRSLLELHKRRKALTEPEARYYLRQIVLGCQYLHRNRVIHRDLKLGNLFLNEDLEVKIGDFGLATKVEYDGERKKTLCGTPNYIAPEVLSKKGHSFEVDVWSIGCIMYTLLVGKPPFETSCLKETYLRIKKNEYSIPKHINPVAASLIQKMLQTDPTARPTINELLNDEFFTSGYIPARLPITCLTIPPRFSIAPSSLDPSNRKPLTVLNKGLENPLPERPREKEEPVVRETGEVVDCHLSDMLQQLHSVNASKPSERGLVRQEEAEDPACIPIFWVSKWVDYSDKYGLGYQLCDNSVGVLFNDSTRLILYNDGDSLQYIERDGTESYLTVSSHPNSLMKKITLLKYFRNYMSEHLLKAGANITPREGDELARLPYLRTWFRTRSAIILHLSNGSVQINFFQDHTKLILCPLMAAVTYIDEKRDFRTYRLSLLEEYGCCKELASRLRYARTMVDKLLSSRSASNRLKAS
Experiment [5] deals with Platelet-derived growth factor receptor alpha (Homo sapiens, UniProt P16234). In words: Selectivity interaction (KinomeScan (DiscoverX)) EUB0001079a PDGFRA. The settings on record: at 1 µM.
The target of experiment [6] is Cyclin-dependent kinase 1/cyclin B (Homo sapiens) (UniProt P06493+P14635+Q8WWL7+O95067). Put plainly: Selectivity interaction (Millipore kinase profiler) EUB0000124b CDK1. Format: protein-complex assay. The settings on record: at 10 µM.
Experiment [7] deals with T2, Dual specificity mitogen-activated protein kinase kinase 6 (Homo sapiens) (UniProt P52564).
T2 sequence (whole entry): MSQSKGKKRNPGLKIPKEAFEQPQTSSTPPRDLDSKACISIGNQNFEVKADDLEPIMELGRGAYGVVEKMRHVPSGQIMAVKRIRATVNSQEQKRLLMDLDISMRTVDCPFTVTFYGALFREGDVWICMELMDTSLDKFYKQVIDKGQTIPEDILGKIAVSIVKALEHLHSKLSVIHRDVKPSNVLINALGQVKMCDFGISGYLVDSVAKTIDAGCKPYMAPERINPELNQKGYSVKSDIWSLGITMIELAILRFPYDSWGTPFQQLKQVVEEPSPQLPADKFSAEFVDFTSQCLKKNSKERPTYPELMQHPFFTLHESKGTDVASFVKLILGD
Put plainly: Selectivity interaction (KinomeScan (DiscoverX)) EUB0000655a MAP2K6. The settings on record: at 10 µM.

For experiment [8], the target named is Death-associated protein kinase 3 (Homo sapiens) (UniProt O43293). Put plainly: Selectivity interaction (KinomeScan (DiscoverX)) EUB0000666a DAPK3. The note with it: at 10 µM.
Sequence of Death-associated protein kinase 3 (Homo sapiens) (O43293 whole entry, looked up): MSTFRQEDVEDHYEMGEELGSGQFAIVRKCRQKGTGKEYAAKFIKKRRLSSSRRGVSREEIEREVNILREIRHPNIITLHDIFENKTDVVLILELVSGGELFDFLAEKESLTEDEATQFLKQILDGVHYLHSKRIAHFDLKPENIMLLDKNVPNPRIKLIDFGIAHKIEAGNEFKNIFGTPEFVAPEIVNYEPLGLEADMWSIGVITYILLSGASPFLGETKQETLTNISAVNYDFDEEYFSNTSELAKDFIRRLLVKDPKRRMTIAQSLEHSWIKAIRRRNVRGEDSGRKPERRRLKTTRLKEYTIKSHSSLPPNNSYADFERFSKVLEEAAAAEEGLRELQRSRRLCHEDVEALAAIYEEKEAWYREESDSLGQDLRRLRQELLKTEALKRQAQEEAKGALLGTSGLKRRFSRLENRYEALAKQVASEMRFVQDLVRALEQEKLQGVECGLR
The target of experiment [9] is T3, Scaffold protein ILK (Homo sapiens) (UniProt Q13418).
T3 sequence (whole entry): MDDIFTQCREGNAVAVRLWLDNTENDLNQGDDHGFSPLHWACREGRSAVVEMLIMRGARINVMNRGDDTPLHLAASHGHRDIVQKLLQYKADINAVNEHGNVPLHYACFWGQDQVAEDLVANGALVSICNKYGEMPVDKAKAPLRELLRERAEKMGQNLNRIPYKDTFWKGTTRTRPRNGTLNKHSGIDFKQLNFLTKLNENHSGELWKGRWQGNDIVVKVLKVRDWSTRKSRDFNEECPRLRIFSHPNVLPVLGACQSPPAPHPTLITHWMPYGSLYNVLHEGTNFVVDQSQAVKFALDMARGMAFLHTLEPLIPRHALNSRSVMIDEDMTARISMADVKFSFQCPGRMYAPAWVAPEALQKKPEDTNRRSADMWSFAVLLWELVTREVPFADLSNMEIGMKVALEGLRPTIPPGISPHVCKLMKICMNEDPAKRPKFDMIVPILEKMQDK
In words: Selectivity interaction (ActivX KiNativ screen (kinase selectivity in THP-1 cell lysates)) EUB0000639a ILK. It counts as subcellular. The note with it: lysate, at 0.04 µM.

The target in experiment [10] is Non-receptor tyrosine-protein kinase TYK2 (Homo sapiens, UniProt P29597). In words: Selectivity interaction (Kinase panel (33PanQinase(R) Activity Assay)) EUB0000877a TYK2.
Sequence of Non-receptor tyrosine-protein kinase TYK2 (P29597 whole entry): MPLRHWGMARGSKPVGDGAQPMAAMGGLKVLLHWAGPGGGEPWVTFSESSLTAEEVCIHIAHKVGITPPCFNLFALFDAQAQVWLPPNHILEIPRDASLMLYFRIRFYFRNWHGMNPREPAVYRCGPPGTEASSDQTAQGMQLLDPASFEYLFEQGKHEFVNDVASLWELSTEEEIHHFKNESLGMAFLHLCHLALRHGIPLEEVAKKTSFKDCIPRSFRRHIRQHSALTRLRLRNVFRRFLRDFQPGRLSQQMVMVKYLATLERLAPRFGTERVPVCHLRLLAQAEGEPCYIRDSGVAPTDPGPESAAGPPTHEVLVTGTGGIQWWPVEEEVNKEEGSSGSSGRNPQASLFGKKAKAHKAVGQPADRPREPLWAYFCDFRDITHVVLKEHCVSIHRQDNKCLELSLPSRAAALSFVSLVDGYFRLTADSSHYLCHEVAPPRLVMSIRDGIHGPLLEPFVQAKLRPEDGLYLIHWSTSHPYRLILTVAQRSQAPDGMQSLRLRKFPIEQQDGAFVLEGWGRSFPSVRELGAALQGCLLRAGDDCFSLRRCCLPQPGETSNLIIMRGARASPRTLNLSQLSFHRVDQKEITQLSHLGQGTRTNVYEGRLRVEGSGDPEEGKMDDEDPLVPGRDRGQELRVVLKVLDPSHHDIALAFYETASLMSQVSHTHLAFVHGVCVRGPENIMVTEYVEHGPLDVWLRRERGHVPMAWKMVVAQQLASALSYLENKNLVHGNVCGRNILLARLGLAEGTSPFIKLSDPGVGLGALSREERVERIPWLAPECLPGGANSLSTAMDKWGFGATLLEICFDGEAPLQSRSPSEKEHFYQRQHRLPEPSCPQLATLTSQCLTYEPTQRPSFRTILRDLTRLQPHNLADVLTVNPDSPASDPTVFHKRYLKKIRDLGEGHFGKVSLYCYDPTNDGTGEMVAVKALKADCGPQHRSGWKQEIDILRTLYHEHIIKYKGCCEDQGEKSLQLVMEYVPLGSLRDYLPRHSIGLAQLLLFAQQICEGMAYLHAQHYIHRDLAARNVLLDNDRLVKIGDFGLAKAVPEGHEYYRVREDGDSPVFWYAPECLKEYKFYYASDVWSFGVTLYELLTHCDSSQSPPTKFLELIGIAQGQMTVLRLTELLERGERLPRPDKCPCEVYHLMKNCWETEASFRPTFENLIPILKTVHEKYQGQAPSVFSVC
The target in experiment [11] is Serine/threonine-protein kinase 38 (Homo sapiens) (UniProt Q15208). In words: Selectivity interaction (KinomeScan (DiscoverX)) EUB0000595a STK38. The settings on record: at 10 µM.
Sequence of Serine/threonine-protein kinase 38 (Homo sapiens) (Q15208 2-465 limits assumed): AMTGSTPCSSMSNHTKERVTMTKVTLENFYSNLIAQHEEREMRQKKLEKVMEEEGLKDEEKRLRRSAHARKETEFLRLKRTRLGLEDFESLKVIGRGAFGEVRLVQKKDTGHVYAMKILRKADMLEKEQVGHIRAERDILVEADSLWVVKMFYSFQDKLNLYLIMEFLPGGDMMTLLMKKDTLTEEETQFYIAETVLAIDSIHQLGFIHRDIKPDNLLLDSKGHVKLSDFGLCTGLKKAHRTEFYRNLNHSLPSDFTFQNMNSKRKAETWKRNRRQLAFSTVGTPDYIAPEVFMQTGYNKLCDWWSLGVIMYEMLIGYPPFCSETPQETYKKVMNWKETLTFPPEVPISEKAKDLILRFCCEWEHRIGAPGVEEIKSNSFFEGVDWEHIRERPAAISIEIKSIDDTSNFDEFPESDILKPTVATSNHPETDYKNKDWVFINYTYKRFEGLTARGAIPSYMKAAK
Experiment [12] concerns the target T4, Serine/threonine-protein kinase D2 (Homo sapiens) (UniProt Q9BZL6).
T4 sequence (whole entry): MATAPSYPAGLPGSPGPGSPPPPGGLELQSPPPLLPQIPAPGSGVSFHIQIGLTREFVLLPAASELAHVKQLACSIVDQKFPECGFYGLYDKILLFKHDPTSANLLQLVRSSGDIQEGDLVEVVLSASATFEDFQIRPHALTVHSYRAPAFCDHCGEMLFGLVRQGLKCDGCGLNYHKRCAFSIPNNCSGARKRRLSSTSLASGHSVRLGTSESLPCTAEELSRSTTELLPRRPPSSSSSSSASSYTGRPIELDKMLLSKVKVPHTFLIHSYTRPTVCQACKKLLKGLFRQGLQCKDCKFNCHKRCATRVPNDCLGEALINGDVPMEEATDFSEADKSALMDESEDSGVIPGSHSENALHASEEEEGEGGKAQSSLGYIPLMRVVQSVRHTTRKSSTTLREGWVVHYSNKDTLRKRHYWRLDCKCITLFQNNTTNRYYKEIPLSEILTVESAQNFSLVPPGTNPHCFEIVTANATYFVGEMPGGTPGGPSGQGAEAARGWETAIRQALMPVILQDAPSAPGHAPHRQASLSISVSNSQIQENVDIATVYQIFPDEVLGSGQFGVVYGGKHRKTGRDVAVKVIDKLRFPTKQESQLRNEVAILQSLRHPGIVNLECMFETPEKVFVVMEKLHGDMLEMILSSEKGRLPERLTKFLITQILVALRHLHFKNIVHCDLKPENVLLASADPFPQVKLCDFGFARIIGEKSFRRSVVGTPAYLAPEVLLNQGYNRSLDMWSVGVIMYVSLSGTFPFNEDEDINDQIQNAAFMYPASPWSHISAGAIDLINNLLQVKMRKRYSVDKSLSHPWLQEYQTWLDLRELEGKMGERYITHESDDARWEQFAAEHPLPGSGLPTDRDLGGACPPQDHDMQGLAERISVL
In words: Selectivity interaction (KinomeScan (DiscoverX)) EUB0001619a PRKD2. The note with it: at 1 µM.

Experiment [13] addresses Glycogen synthase kinase-3 alpha (Homo sapiens, UniProt P49840). In words: Selectivity interaction (Kinase panel (KiNativ target engagement assay in Jurkat cells)) EUB0001635a GSK3A. It counts as cell-based. The settings on record: Selectivity number of off-targets 0.0, Selectivity number of targets 233.0, Source Knowledge https://www.sciencedirect.com/science/article/pii/S2451945619300674?via%3Dihub, at 1 µM.

pIC50: −log10 of the molar value. Bounds are passed on as bounds.

Sequence of Serine/threonine-protein kinase 25 (Homo sapiens) (O00506 whole entry, looked up, canonical isoform): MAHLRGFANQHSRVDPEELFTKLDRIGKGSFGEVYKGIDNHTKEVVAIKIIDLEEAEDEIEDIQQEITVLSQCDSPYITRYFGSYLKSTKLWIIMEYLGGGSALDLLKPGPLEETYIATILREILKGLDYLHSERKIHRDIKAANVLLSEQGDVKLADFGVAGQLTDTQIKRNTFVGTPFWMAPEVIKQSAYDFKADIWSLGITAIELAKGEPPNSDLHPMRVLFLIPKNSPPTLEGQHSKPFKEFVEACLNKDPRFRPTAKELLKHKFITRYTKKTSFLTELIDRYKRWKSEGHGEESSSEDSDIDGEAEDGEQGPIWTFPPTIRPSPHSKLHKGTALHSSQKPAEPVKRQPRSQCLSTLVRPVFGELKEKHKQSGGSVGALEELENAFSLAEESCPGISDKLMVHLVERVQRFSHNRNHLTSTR
Sequence of Homeodomain-interacting protein kinase 1 (Q86Z02 whole entry, looked up): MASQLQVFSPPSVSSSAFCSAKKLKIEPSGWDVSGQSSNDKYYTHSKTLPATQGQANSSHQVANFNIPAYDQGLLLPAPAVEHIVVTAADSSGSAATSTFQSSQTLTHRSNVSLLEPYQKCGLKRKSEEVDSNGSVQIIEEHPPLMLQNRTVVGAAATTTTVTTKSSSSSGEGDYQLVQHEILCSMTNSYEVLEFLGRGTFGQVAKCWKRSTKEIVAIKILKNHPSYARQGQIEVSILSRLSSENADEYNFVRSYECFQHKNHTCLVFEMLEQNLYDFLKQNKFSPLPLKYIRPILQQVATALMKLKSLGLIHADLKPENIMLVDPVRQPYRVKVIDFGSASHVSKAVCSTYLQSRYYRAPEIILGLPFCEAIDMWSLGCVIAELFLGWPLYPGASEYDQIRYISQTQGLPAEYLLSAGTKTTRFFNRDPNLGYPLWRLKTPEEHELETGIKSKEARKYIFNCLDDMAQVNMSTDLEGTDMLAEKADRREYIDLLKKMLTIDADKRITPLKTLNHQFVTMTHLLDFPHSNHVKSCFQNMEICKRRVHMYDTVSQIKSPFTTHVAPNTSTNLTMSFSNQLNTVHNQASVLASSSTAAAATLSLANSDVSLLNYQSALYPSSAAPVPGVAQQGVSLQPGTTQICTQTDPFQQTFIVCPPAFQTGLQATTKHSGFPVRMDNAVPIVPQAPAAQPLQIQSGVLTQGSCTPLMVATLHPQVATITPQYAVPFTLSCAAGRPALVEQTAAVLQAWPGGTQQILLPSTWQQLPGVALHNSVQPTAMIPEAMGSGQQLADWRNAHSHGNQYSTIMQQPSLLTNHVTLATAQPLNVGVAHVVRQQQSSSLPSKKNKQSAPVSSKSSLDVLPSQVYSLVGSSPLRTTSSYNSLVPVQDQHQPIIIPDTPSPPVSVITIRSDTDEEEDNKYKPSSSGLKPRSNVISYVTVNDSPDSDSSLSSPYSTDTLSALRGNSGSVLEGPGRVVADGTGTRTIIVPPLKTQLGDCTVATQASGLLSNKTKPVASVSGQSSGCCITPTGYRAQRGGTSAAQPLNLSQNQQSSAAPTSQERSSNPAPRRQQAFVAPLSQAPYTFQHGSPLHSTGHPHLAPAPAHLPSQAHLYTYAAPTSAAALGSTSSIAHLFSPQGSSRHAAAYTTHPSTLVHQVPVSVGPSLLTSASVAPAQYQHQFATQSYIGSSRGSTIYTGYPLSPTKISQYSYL
Sequence of Glycogen synthase kinase-3 alpha (P49840 2-483 limits assumed): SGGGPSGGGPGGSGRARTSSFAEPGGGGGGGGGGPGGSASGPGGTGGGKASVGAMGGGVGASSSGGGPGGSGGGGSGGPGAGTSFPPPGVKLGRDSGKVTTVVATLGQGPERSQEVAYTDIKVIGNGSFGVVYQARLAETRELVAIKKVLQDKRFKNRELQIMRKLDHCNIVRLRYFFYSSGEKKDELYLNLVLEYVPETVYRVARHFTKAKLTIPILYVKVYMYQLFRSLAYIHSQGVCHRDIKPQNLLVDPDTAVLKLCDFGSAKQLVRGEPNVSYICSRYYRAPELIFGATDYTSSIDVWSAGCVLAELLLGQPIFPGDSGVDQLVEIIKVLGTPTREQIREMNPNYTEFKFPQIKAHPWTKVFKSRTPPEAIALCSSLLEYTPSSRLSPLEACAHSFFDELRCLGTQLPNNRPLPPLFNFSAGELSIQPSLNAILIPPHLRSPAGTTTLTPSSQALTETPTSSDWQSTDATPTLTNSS

Regarding `Cc1ccc(-c2ccc3c(ccc4sc5c(c43)NC[C@@H](C)NC5=O)n2)cn1`, the % of inhibition in experiment [1] was 7%.

Consider `C=CC(=O)Nc1cccc(C(=O)Nc2ccc(Nc3cc(-c4[nH]c(SC)nc4C)ccn3)cc2)c1`, for which the % of control was 88% in experiment [2] (at 1 µM) and 95% in experiment [2] (at 5 µM). In experiment [3], `CN(C)C/C=C/C(=O)Nc1ccc(C(=O)N2CCCC(Nc3ncc(Cl)c(-c4c[nH]c5ccccc45)n3)C2)cc1` (centres undefined) had a % of control of 65%. Turning to `Nc1cnc(N2CCc3cc(S(=O)(=O)Nc4c(F)cc(Cl)cc4F)cc(N4CCCC4=O)c32)nc1` [TP-020n], the % of control was 100% in experiment [4] and 89% in experiment [5]. `CC(=O)Nc1cccc(-n2c(=O)n(C3CC3)c(=O)c3c(Nc4ccc(I)cc4F)n(C)c(=O)c(C)c32)c1`: in experiment [6], the % of control worked out at 104%. As for `CN(C)CCOc1ccc(-c2nc(-c3ccncc3)c(-c3ccc4c(c3)CC/C4=N\O)[nH]2)cc1`, the % of control in experiment [7] was found to be 100%.

`O=C(NOC[C@H](O)CO)c1ccc(F)c(F)c1Nc1ccc(I)cc1F` came in with a % of control in experiment [8] of 100%. In the case of `CC[C@@H]1[C@H](F)C(=O)N[C@@H]1COc1nccc2cc(C(N)=O)c(OC)cc12` [ZIMLOVISERTIB], the % of inhibition in [9] is -18.4%. The term pIC50 denotes the IC50 on a negative log10 scale, so that one unit is a factor of ten. Low readings indicate a large IC50, high ones a small IC50. As to `CCC(=O)N1CC[C@H](Nc2ncnc3c2CN(c2cnc(OC)c(C(F)(F)F)c2)CC3)C1` [LENIOLISIB], the pIC50 in [10] is less than 5.00. Consider `COCC(=O)NC/C=C/c1ccc2ncnc(Nc3ccc(Oc4ccc(C)nc4)c(C)c3)c2c1` [CP-724714], for which, in experiment [11], the % of control worked out at 73%. `N#Cc1cccc(-c2c[nH]c3ncnc(N4CCOCC4)c23)c1`: in [12], the % of control came out at 100%.

As for `C=CC(=O)Nc1ccc(C(=O)Nc2[nH]nc3c2CN(C(=O)N[C@H](CN(C)C)c2ccccc2)C3(C)C)cc1`, in experiment [13], the % of engagement was -9.5%.
